Data published in PubChem BioAssay (NCI).
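The compound was tested at five concentrations on cells cultured in 96-well plates, with a 48-hour exposure period. The concentration for 50% growth inhibition is given as GI50. TGI: concentration producing complete growth inhibition.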

Assays:
Experiment in all cases: NCI anticancer screen, dose series, 48 h
[1] = tested on: CAKI-1 renal
[2] = tested on: EKVX NSCLC
[3] = tested on: HOP-62 NSCLC
[4] = tested on: HS 578T breast
[5] = tested on: NCI-H460 lung
[6] = tested on: OVCAR-3 ovarian
[7] = tested on: RPMI-8226 leukemia
[8] = tested on: SNB-75 CNS
[9] = tested on: SW-620 colon
[10] = tested on: TK-10 renal

Structure (SMILES) | GI50 [1] | TGI [1] | GI50 [2] | TGI [2] | GI50 [3] | TGI [3] | GI50 [4] | TGI [4] | GI50 [5] | TGI [5] | GI50 [6] | TGI [6] | GI50 [7] | TGI [7] | GI50 [8] | TGI [8] | GI50 [9] | TGI [9] | GI50 [10] | TGI [10]
COc1cc2c3c(n(CCCN4CCC(N)CC4)c(=O)c2cc1OC)-c1cc2c(cc1C3=O)OCO2 | 311 nM | 2.99 µM | 1310 nM | 3.87 µM | 423 nM | 1.11 µM | 1.69 µM | 11.7 µM | 184 nM | 0.858 µM | 765 nM | 1.9 µM | 0.202 µM | 1.02 µM | 890 nM | 5.56 µM | 447 nM | 1.43 µM | 774 nM | 4.36 µM
Cn1c(N)nc2c(nc(OCc3ccccc3)n2C2OC(CO)C(O)C2O)c1=O (stereo not given) | – | > 100 µM | – | > 100 µM | – | > 100 µM | – | > 100 µM | – | > 100 µM | – | > 100 µM | – | > 100 µM | – | > 100 µM | – | > 100 µM | – | > 100 µM
CS(=O)(=O)Nc1ccc(-c2ccc3c(NC(=O)C4CC4)n[nH]c3c2)cc1 | > 25000 nM | > 25 µM | > 25000 nM | > 25 µM | > 25000 nM | > 25 µM | 24.4 µM | > 25 µM | > 22500 nM | > 25 µM | > 21200 nM | > 25 µM | 13.7 µM | > 25 µM | > 25000 nM | > 25 µM | > 25000 nM | > 25 µM | > 25000 nM | > 25 µM
